Patent US6355799B1, “Substituted benzene compounds, process for their preparation, and herbicidal and defoliant compositions containing them” (ISK Americas Incorporated, priority 1997, dated 2002)

Legend:
Type in all cases: in vivo
[1] = system: redroot pigweed (Amaranthus retroflexus, AMARE); assay: Pre-emerge test, greenhouse herbicide activity screening; settings: pre-emerge, 14 days after application, scale 0-100
Summary of the method: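 Plants grown in 10 cm pots of sandy loam mix received acetone-dissolved compounds through a moving flat-fan nozzle. Doses ranged from 15 to 1000 g ai/ha. Pre-emerge pots were seeded one day earlier, post-emerge pots 8–21 days earlier. Fourteen days on, each pot was graded 0–100 for damage.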

[2] = system: sicklepod (Cassia obtusifolia, CASOB); assay: as above; settings: pre-emerge, 14 days after application, scale 0-100
Summary of the method: (§1)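 Compounds in acetone were track-sprayed at 15–1000 g ai/ha: pre-emergence onto soil sown the previous day, then top-watered to incorporate and later bottom-watered; post-emergence onto 2–3 leaf plants with 0.25% v/v surfactant, bottom-watered only. Ratings on a 0–100 phytotoxicity scale were taken at day 14.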

[3] = system: velvetleaf (Abutilon theophrasti, ABUTH); assay: as above; settings: pre-emerge, 14 days after application, scale 0-100
Summary of the method: as §1

[4] = system: lambsquarters (Chenopodium album, CHEAL); assay: as above; settings: pre-emerge, 14 days after application, scale 0-100
Summary of the method: as §1

[5] = system: green foxtail (Setaria viridis, SETVI); assay: as above; settings: pre-emerge, 14 days after application, scale 0-100
Summary of the method: as §1

[6] = system: barnyardgrass (Echinochloa crus-galli, ECHCG); assay: as above; settings: pre-emerge, 14 days after application, scale 0-100
Summary of the method: as §1

[7] = system: ivyleaf morningglory (Ipomoea hederacea, IPOHE); assay: as above; settings: pre-emerge, 14 days after application, scale 0-100
Summary of the method: as §1

[8] = system: johnsongrass (Sorghum halepense, SORHA); assay: as above; settings: pre-emerge, 14 days after application, scale 0-100
Summary of the method: as §1

[9] = system: large crabgrass (Digitaria sanguinalis, DIGSA); assay: as above; settings: pre-emerge, 14 days after application, scale 0-100
Summary of the method: as §1

[10] = system: sicklepod (Cassia obtusifolia, CASOB); assay: Post-emerge test, greenhouse herbicide activity screening; settings: post-emerge, 14 days after application, rating scale 0-100
Summary of the method: (§2)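 Compounds in acetone were track-sprayed at 187 l/ha, 15–1000 g ai/ha, onto sandy loam pots. Pre-emerge seeds were sown one day before spraying, with surface watering afterwards. Post-emerge plants were at the 2–3 leaf stage and sprayed with 0.25% v/v non-ionic surfactant. Injury was rated 0–100 at 14 days.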

[11] = system: velvetleaf (Abutilon theophrasti, ABUTH); assay: as above; settings: post-emerge, 14 days after application, rating scale 0-100
Summary of the method: as §2

[12] = system: lambsquarters (Chenopodium album, CHEAL); assay: as above; settings: post-emerge, 14 days after application, rating scale 0-100
Summary of the method: as §2

[13] = system: green foxtail (Setaria viridis, SETVI); assay: as above; settings: post-emerge, 14 days after application, rating scale 0-100
Summary of the method: as §2

[14] = system: barnyardgrass (Echinochloa crus-galli, ECHCG); assay: as above; settings: post-emerge, 14 days after application, rating scale 0-100
Summary of the method: as §2

[15] = system: ivyleaf morningglory (Ipomoea hederacea, IPOHE); assay: as above; settings: post-emerge, 14 days after application, rating scale 0-100
Summary of the method: as §2

[16] = system: redroot pigweed (Amaranthus retroflexus, AMARE); assay: as above; settings: post-emerge, 14 days after application, rating scale 0-100
Summary of the method: as §2

[17] = system: johnsongrass (Sorghum halepense, SORHA); assay: as above; settings: post-emerge, 14 days after application, rating scale 0-100
Summary of the method: as §2

[18] = system: common ragweed (Ambrosia artemisizfolia L., AMBEL); assay: as above; settings: post-emerge, 14 days after application, rating scale 0-100
Summary of the method: as §2

[19] = system: large crabgrass (Digitaria sanguinalis, DIGSA); assay: as above; settings: post-emerge, 14 days after application, rating scale 0-100
Summary of the method: as §2

[20] = system: upland rice (Oryza sp., var. Tebonnet, RICE); assay: Post-emerge test, crop safety; settings: post-emerge, 14 days after application, rating scale 0-100
Summary of the method: (§3)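 Rating: 0–100 visual injury, 14 DAA. Application: acetone, 187 l/ha, 15–1000 g ai/ha, flat-fan track sprayer with nozzle 40–45 cm above soil or canopy. Post-emerge runs used 0.25% v/v surfactant on 2–3 leaf plants.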

[21] = system: field corn (Zea mays L., var. Dekalb 535, CORN); assay: Post-emerge test, crop safety; settings: post-emerge, 14 days after application, rating scale 0-100
Summary of the method: as §3

[22] = system: upland rice (Oryza sp., var. Tebonnet, RICE); assay: Pre-emerge test, crop safety; settings: pre-emerge, 14 days after application, scale 0-100
Summary of the method: (§4)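 Visual ratings on a 0-100 scale (0 no damage, 100 all plants dead) were taken at 14 days after treatment. Rates of 15-1000 g ai/ha in acetone, 187 l/ha, were sprayed onto soil one day after planting (pre-emerge) or onto 2-3 leaf plants with 0.25% v/v surfactant (post-emerge).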

[23] = system: field corn (Zea mays L., var. Dekalb 535, CORN); assay: Pre-emerge test, crop safety; settings: pre-emerge, 14 days after application, scale 0-100
Summary of the method: as §4

## COc1c(Cl)cc(F)c(-n2c(=O)cc(C(F)(F)F)n(C)c2=O)c1NC(=O)c1ccc2cccc(F)c2c1 [2-161]
[1]; 63 g ai/ha
  phytotoxicity rating AMARE: 100
[1]; 250 g ai/ha
  phytotoxicity rating AMARE: 100
[2]; 63 g ai/ha
  phytotoxicity rating CASOB: 0
[2]; 250 g ai/ha
  phytotoxicity rating CASOB: 50
[3]; 63 g ai/ha
  phytotoxicity rating ABUTH: 100
[3]; 250 g ai/ha
  phytotoxicity rating ABUTH: 100
[4]; 63 g ai/ha
  phytotoxicity rating CHEAL: 100
[4]; 250 g ai/ha
  phytotoxicity rating CHEAL: 100
[5]; 63 g ai/ha
  phytotoxicity rating SETVI: 100
[5]; 250 g ai/ha
  phytotoxicity rating SETVI: 100
[6]; 63 g ai/ha
  phytotoxicity rating ECHCG: 90
[6]; 250 g ai/ha
  phytotoxicity rating ECHCG: 99
[7]; 63 g ai/ha
  phytotoxicity rating IPOHE: 20
[7]; 250 g ai/ha
  phytotoxicity rating IPOHE: 90
[8]; 63 g ai/ha
  phytotoxicity rating SORHA: 0
[8]; 250 g ai/ha
  phytotoxicity rating SORHA: 30
[9]; 63 g ai/ha
  phytotoxicity rating DIGSA: 95
[9]; 250 g ai/ha
  phytotoxicity rating DIGSA: 100
[10]; 63 g ai/ha
  CASOB phytotoxicity rating: 100
[10]; 250 g ai/ha
  CASOB phytotoxicity rating: 100
[11]; 63 g ai/ha
  ABUTH phytotoxicity rating: 100
[11]; 250 g ai/ha
  ABUTH phytotoxicity rating: 100
[12]; 63 g ai/ha
  CHEAL phytotoxicity rating: 100
[12]; 250 g ai/ha
  CHEAL phytotoxicity rating: 100
[13]; 63 g ai/ha
  SETVI phytotoxicity rating: 0
[13]; 250 g ai/ha
  SETVI phytotoxicity rating: 20
[14]; 63 g ai/ha
  ECHCG phytotoxicity rating: 20
[14]; 250 g ai/ha
  ECHCG phytotoxicity rating: 60
[15]; 63 g ai/ha
  IPOHE phytotoxicity rating: 100
[15]; 250 g ai/ha
  IPOHE phytotoxicity rating: 100
[16]; 63 g ai/ha
  AMARE phytotoxicity rating: 100
[16]; 250 g ai/ha
  AMARE phytotoxicity rating: 100
[17]; 63 g ai/ha
  SORHA phytotoxicity rating: 0
[17]; 250 g ai/ha
  SORHA phytotoxicity rating: 30
[18]; 63 g ai/ha
  AMBEL phytotoxicity rating: 30
[18]; 250 g ai/ha
  AMBEL phytotoxicity rating: 100
[19]; 63 g ai/ha
  DIGSA phytotoxicity rating: 0
[19]; 250 g ai/ha
  DIGSA phytotoxicity rating: 50
[20]; 63 g ai/ha
  RICE phytotoxicity rating (crop damage): 20
[20]; 250 g ai/ha
  RICE phytotoxicity rating (crop damage): 70
[21]; 63 g ai/ha
  CORN phytotoxicity rating (crop damage): 0
[21]; 250 g ai/ha
  CORN phytotoxicity rating (crop damage): 20
[22]; 63 g ai/ha
  phytotoxicity rating RICE (crop damage): 0
[22]; 250 g ai/ha
  phytotoxicity rating RICE (crop damage): 40
[23]; 63 g ai/ha
  phytotoxicity rating CORN (crop damage): 0
[23]; 250 g ai/ha
  phytotoxicity rating CORN (crop damage): 0
